Results published in US6962928B2, “Tetrahydroquinoline derivatives for the inhibition of osteoporosis, estrogen dependent breast cancer, endometriosis and uterine fibrosis” (Eli Lilly and Company, priority 2001, dated 2005).

Test system: Ishikawa human endometrial tumor cells
Experiment: Ishikawa alkaline phosphatase assay
Assay type: cell-based
Conditions: for EC50: Homo sapiens, Ishikawa; for EC50 / Agonist % Eff: agonist mode; for Agonist % Eff: % efficacy versus the response to Tamoxifen; for Antagonist % Eff: antagonist mode, % efficacy versus E2 (1 nM) alone
Text: Ishikawa Alkaline Phosphatase Assay
Ishikawa human endometrial tumor cells are maintained in MEM (minimum essential medium, with Earle's salts and L-Glutamine, Gibco BRL, Gaithersburg, Md.), supplemented with 10% fetal bovine serum (FBS) (V/V), (Gibco BRL). One day prior to assay, growth media is changed to assay medium, DMEM/F-12 (3:1) (Dulbecco's Modified Eagle Medium: Nutrient Mixture F-12, 3:1 Mixture, phenol red-free, Gibco BRL) supplemented with 5% dextran coated charcoal stripped fetal bovine serum (DCC-FBS) (Hyclone, Logen, Utah), L-Glutamine (2 mM), MEM sodium pyruvate (1 mM), HEPES (N-[2-hydroxyethyl]piperazine-N′-[2-ethanesulfonic acid] 2 mM) all from Gibco BRL). After an overnight incubation, ishikawa cells are rinsed with Dulbecco's Phosphate Buffered Saline (1×) (D-PBS) without Ca^+2 and Mg^+2 (Gibco BRL), and trypsinized by a 3 minute incubation with 0.25% Trypsin/EDTA, phenol red-free (Gibco BRL). Cells are resuspended in assay medium and adjusted to 250,000 cells/ml. Approximately 25,000 cells in a 100 ul media are added to flat-bottom 96 wells microculture plates (Costar 3596) and incubated at 37° C. in a 5% CO2 humidified incubator for 24 hours. The next day, serial dilutions of compounds are prepared in assay medium (at 6 times the final concentration in the assay). The assay is run in dual mode, agonist and antagonist modes. For the agonist mode, plates receive 25 μl/well of assay medium followed by 25 μl/well of diluted compounds (at 6× the final concentrations). For the antagonist mode, plates receive 25 μl/well of 6 nM E2 (β-Estradiol, Sigma, St. Louis, Mo.) followed by 25 μl/well of diluted compounds (at 6× the final concentrations). After an additional 48-hour incubation at 37° C. in a 5% CO2 humidified incubator, media is aspirated from wells and 100 μl fresh assay medium is added to each microculture. Serial dilutions of compounds are prepared and added to the cells as described above. After an additional 72 hour incubation at 37° C. in a 5% CO2 humidified incubator, the assay is quenched by removing media and rinsing plates twice in Dulbecco's Phosphate Buffered Saline (1×) (D-PBS) (Gibco BRL). The plates are dried for 5 min and frozen at −70° C. for at least 1 hour. The plates are then removed from the freezer and allowed to thaw at room temperature. To each well, 100 μl of 1-Step™ PNPP (Pierce Chemical Company, Rockford, Ill.) is added. After a 20-minute incubation, plates are read on a spectophotometer at 405 nm. The data is fitted to a linear interpolation to derive EC50 (for agonist mode) or IC50 (for antagonist mode) values. For the agonist mode, a % efficacy for each compound is calculated versus the response to Tamoxifen. For the antagonist mode, a % efficacy for each compound is calculated versus E2 (1 nM) alone.

EC50 [nM] | Structure (SMILES) | Agonist % Eff [%] | Antagonist % Eff [%]
262 | Oc1ccc(C2CCc3cc(O)ccc3N2c2ccc(OCCN3CCCCC3)cc2)cc1 (stereo not drawn) [Example 3] | 117 | −0.2
161 | Oc1ccc(C2CCc3cc(O)ccc3N2c2ccc(OCCN3CCCC3)cc2)cc1 (stereo not drawn) [Example 4] | 36 | 40
